The subject of data set [1] is HeLa. Nature of the data set: Potency index, ratio of artesunate IC50 to test compound IC50 for antiproliferative activity against human HeLA cells assessed as inhibition of cell growth. The class given is functional.
Data set [2] deals with HCT-116. Nature of the data set: Potency index, ratio of artesunate IC50 to test compound IC50 for antiproliferative activity against human HCT-116 cells assessed as inhibition of cell growth. It is filed as functional.
Data set [3] has as its system HCT-116. Nature of the data set: Antiproliferative activity against human HCT-116 cells. The class given is functional, cell-based.
For data set [4], the system named is HeLa. Nature of the data set: Antiproliferative activity against human HeLa cells. The class given is functional, cell-based.
Data set [5] can be described thus: Antiproliferative activity against human 1205Lu cells. The class given is functional, cell-based.
Data set [6] can be described thus: Cytotoxicity against human HFF cells. It is filed as toxicity, cell-based.
Data set [7] can be described thus: Potency index, ratio of artesunate IC50 to test compound IC50 for antiproliferative activity against human 1205Lu cells assessed as inhibition of cell growth. It is filed as functional.
Data set [8] deals with MCF7. As to the kind of experiment: Antiproliferative activity against doxorubicin resistant human MCF7 cells. The class given is functional, cell-based.
A short description of data set [9]: Antiproliferative activity against mouse P388 cells assessed as reduction in cell viability measured after 72 hrs. The class given is functional, cell-based. The conditions noted are these: 72 h.
Data set [10] deals with HL-60. Nature of the data set: Antiproliferative activity against human HL-60 cells assessed as reduction in cell viability measured after 72 hrs. It is filed as functional, cell-based. The settings on record: HL-60, 72 h.
Data set [11] has as its system P388/ADR. As to the kind of experiment: Antiproliferative activity against mouse P388/ADR cells assessed as reduction in cell viability measured after 72 hrs. The class given is functional, cell-based. The conditions noted are these: 72 h.
A further data set has as its system P388. Nature of the data set: Potency index, ratio of test compound IC50 to dihydroartemisinin IC50 for antiproliferative activity against mouse P388 cells assessed as reduction in cell viability measured after 72 hrs. It is filed as functional.
In data set [12] the test system is HL-60. As to the kind of experiment: Potency index, ratio of test compound IC50 to dihydroartemisinin IC50 for antiproliferative activity against human HL-60 cells assessed as reduction in cell viability measured after 72 hrs. It is filed as functional.
For data set [13], the system named is P388/ADR. Nature of the data set: Potency index, ratio of test compound IC50 to dihydroartemisinin IC50 for antiproliferative activity against mouse P388/ADR cells assessed as reduction in cell viability measured after 72 hrs. It is filed as functional.
The subject of data set [14] is MCF7. Nature of the data set: Anticancer activity against human MCF7 cells. The class given is functional, cell-based.
Data set [15] has as its system HL-60. Nature of the data set: Antiproliferative activity against human HL-60 cells. It is filed as functional, cell-based.
A further data set deals with HepG2. As to the kind of experiment: Antiproliferative activity against human HepG2 cells. It is filed as functional, cell-based.
The next data set relates to A549. As to the kind of experiment: Antiproliferative activity against human A549 cells. It is filed as functional, cell-based.
Another data set concerns K562. Nature of the data set: Antiproliferative activity against human K562 cells. The class given is functional, cell-based.
Another data set deals with PC-3. Nature of the data set: Antiproliferative activity against human PC-3 cells. It is filed as functional, cell-based.
The test system of the next data set is A-431. Nature of the data set: Antiproliferative activity against human A-431 cells. The class given is functional, cell-based.
Another data set has as its system MDA-MB-231. Nature of the data set: Antiproliferative activity against human MDA-MB-231 cells. It is filed as functional, cell-based. The settings on record: Homo sapiens, MDA-MB-231.
A further data set deals with COLO 205. Nature of the data set: Antiproliferative activity against human COLO 205 cells. The class given is functional, cell-based.
A further data set deals with HEK293. As to the kind of experiment: Antiproliferative activity against human HEK293 cells. It is filed as functional, cell-based.
A short description of data set [16]: Cytotoxicity against human HEK293 cells. It is filed as toxicity, cell-based.
Data set [17] in a line: Cytotoxicity against CHO cells. It is filed as toxicity, cell-based, Cricetulus griseus. The settings on record: Chinese hamster.
The test system of data set [18] is TK-10. As to the kind of experiment: Anticancer activity against human TK-10 cells. The class given is functional, cell-based.
Data set [19] relates to UACC-62. As to the kind of experiment: Anticancer activity against human UACC-62 cells. It is filed as functional, cell-based.
The test system of data set [20] is TK-10. As to the kind of experiment: Anticancer activity against human TK-10 cells assessed as total growth inhibition. The class given is functional.
Data set [21] relates to UACC-62. As to the kind of experiment: Anticancer activity against human UACC-62 cells assessed as total growth inhibition. The class given is functional.
Data set [22] relates to MCF7. Nature of the data set: Anticancer activity against human MCF7 cells assessed as total growth inhibition. It is filed as functional.
Data set [23] in a line: Blood clearance in rat at 100 mg/kg, po. The class given is ADME, organism-based.
In a further data set the test system is C2G cell line. As to the kind of experiment: Antiproliferative activity against mouse C2G cell line. The class given is functional, cell-based.
The next data set concerns DLD-1. As to the kind of experiment: Cytotoxicity against human DLD-1 cells assessed as cell growth inhibition measured after 48 hrs by MTT assay. It is filed as functional.
A further data set deals with HSC-2. Nature of the data set: Cytotoxicity against human HSC-2 cells. The class given is functional, cell-based.
Another data set concerns Ca9-22. As to the kind of experiment: Cytotoxicity against human Ca9-22 cells. It is filed as functional, cell-based.
Data set [24] can be described thus: Cytotoxicity against human U87 cells assessed as cell growth inhibition measured after 48 hrs by MTT assay. The class given is functional, U-87MG ATCC. The settings on record: U-87 MG.
The test system of data set [25] is HeLa. Nature of the data set: Cytotoxicity against human HeLa cells assessed as cell growth inhibition measured after 48 hrs by MTT assay. The class given is functional.
A further data set concerns SiHa. As to the kind of experiment: Cytotoxicity against human SiHa cells assessed as cell growth inhibition measured after 48 hrs by MTT assay. The class given is functional.
A further data set relates to A 172. Nature of the data set: Cytotoxicity against human A-172 cells assessed as cell growth inhibition measured after 48 hrs by MTT assay. The class given is functional.
Another data set relates to B16. Nature of the data set: Cytotoxicity against mouse B16 cells assessed as cell growth inhibition measured after 48 hrs by MTT assay. It is filed as functional.

≈ marks a conversion by molar mass, not a printed value. Bounds are passed on as bounds.

As for `C[C@H]1[C@@H](CC(C[C@H]2O[C@@H]3O[C@@]4(C)CC[C@H]5[C@H](C)CC[C@@H]([C@H]2C)[C@@]35OO4)CS(=O)(=O)c2ccc(CO)cc2)O[C@@H]2O[C@@]3(C)CC[C@H]4[C@H](C)CC[C@@H]1[C@@]24OO3` (stereo partly drawn), the “Ratio IC50” value (in the data set on HeLa [1]; in the data set with HCT-116 [2]; in data set [7]) was 12.6 each time. In addition, the IC50 is 70 nM in the data set on HCT-116 [3], 70 nM in the data set with HeLa [4], 70 nM in data set [5] and 57500 nM in data set [6].
As to `C[C@H]1[C@@H](Oc2ccc(CCn3ccnn3)cc2)O[C@@H]2O[C@@]3(C)CC[C@H]4[C@H](C)CC[C@@H]1[C@@]24OO3`, the half-maximal inhibitory concentration (IC50) came to 47 nM in the data set with MCF7 [8], 47 nM in [9], 65 nM in the data set with HL-60 [10] and 2890 nM in the data set with P388/ADR [11]. In addition, the “Ratio IC50” value with P388, with HL-60 [12] and with P388/ADR [13] was 4.6 throughout.
Take `C[C@H]1[C@@H](NC(=O)CCC(=O)NO)O[C@@H]2O[C@@]3(C)CC[C@H]4[C@H](C)CC[C@@H]1[C@@]24OO3`: the IC50 is 1.28 µg/mL with MCF7 [14], 1.28 µg/mL (≈ 3.21 µM) in the data set on HL-60 [15] and 1.28 µg/mL (≈ 3.21 µM) in the data set on HepG2.
Take `C[C@H]1[C@@H](CC(C[C@H]2O[C@@H]3O[C@@]4(C)CC[C@H]5[C@H](C)CC[C@@H]([C@H]2C)[C@@]35OO4)CS(=O)(=O)c2ccc(COC(=O)N(C)C)cc2)O[C@@H]2O[C@@]3(C)CC[C@H]4[C@H](C)CC[C@@H]1[C@@]24OO3` (stereo partly drawn): the “Ratio IC50” value (with HeLa [1]; with HCT-116 [2]; in data set [7]) was 12.6 in each case. Moreover, the IC50 was 70 nM with HCT-116 [3], 70 nM in the data set on HeLa [4], 70 nM in data set [5] and 4900 nM in data set [6].
As for `C[C@H]1[C@@H](OCc2cn(-c3ccccc3C(=O)/C=C/c3ccccc3C(F)(F)F)nn2)O[C@@H]2O[C@@]3(C)CC[C@H]4[C@H](C)CC[C@@H]1[C@@]24OO3`, the 50% inhibitory concentration (IC50) in the data set on A549, in the data set with K562, with PC-3, with A-431, in the data set on MDA-MB-231 and in the data set on COLO 205 was 4060 nM in each case. The half-maximal inhibitory concentration (IC50) with HEK293 was 4060 nM; in data set [16], more than 100 µg/mL.
`C[C@H]1[C@@H](OCC[N+]2(CCO[C@H]3O[C@@H]4O[C@@]5(C)CC[C@H]6[C@H](C)CC[C@@H]([C@H]3C)[C@@]46OO5)CCN(CCNc3ccnc4cc(Cl)ccc34)CC2)O[C@@H]2O[C@@]3(C)CC[C@H]4[C@H](C)CC[C@@H]1[C@@]24OO3.[Br-]` came in with a 50% inhibitory concentration (IC50) in [17] of 74800 nM. Also, the GI50 in the data set on MCF7 [14], with TK-10 [18] and with UACC-62 [19] was 30 nM each time. In addition, the total growth inhibition concentration (TGI) with TK-10 [20], in the data set with UACC-62 [21] and with MCF7 [22] was 2210 nM in each case. Besides, in data set [23], the CL/F was 287 L/h/kg.
Consider `C[C@H]1[C@@H](NC(=O)CCCCCCC(=O)NO)O[C@@H]2O[C@@]3(C)CC[C@H]4[C@H](C)CC[C@@H]1[C@@]24OO3` (racemic), for which the values for the half-inhibitory concentration (IC50) with MCF7 [14], in the data set on HL-60 [15] and with HepG2 were 1.28 µg/mL, 1.28 µg/mL (≈ 2.82 µM) and 1.28 µg/mL (≈ 2.82 µM), respectively.
As to `Nc1ccn([C@@H]2O[C@H](CO)[C@@H](O)C2(F)F)c(=O)n1` [GEMCITABINE], the IC50 in the data set with C2G cell line turned out to be 3.7 nM.
Take `CC(=O)O[C@H]1C(=O)[C@@]2(C)[C@H]([C@H](OC(=O)c3ccccc3)[C@]3(O)C[C@H](OC(=O)[C@H](O)[C@@H](NC(=O)c4ccccc4)c4ccccc4)C(C)=C1C3(C)C)[C@]1(OC(C)=O)CO[C@@H]1C[C@@H]2O` [PACLITAXEL]: the GI50 (with DLD-1; in data set [24]; in the data set with HeLa [25]; in the data set with SiHa; in the data set with A 172; in the data set with B16) was 10 nM in each case. Besides, the 50% inhibitory concentration (IC50) in the data set with MCF7 [14] is more than 40000 nM; in the data set with HSC-2, more than 100000 nM; in the data set on Ca9-22 it was more than 100000 nM.

These data come from ChEMBL document CHEMBL5244230, “Artemisinin-derived hybrids and their anticancer activity” (Eur J Med Chem, 2020).
